This is an account of results in patent publication US20240076630A1, “METHODS FOR GENERATING NEURAL TISSUE AND USES THEREOF” (priority 2015, published 2024).

This assay concerns human brain organoids. The class given is cell-based.

Consider Tetrodotoxin citrate [TTX], for which the spike rate entry is on record as “suppressed”.

For “2,3-Dioxo-6-nitro-1,2,3,4-tetrahydrobenzo[f]quinoxaline-7-sulfonamide disodium salt [NBQX]”, the mean spiking rate result (NBQX 20 μM, n=9 units, p<0.05, two-tailed Wilcoxon signed rank test, FIG. 4D bottom panel legend) is reported as “attenuated”. Moreover, the “NBQX-treated median firing rate” value (bath application of 20 μM NBQX, 95% CI 0.0023 to 0.2048, n=12 units from 4 organoids) is given as 0.0733 Hz. The “reduction of the median mean firing rate” value (bath application of 20 μM NBQX, vs baseline median firing rate 0.3800 Hz, p=0.0005, n=12 units from 4 organoids) is reported as 81%.
